Laboratory results published in US12336981B2, “Compounds and compositions for the inhibition of NAMPT” (Valo Health, Inc., priority 2010, dated 2025).
Where two headings read alike, the source gives them in different places.

Assays:
A2780 cells = assay: In-vitro cell proliferation assay (SRB), A2780 cells; assay type: cell-based; conditions: Homo sapiens, A2780, 72 h, A2780 cells, 72 hours, read-out: A2780 IC50
How it was run: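 Viable cells measured by SRB staining after 6% TCA fixation, absorbance 570 nm. Media-only background subtracted; % inhibition derived at two compound concentrations.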

NAMPT = target: T1, NAMPT (Homo sapiens, UniProt P43490); assay: Biochemical inhibition assay: NAMPT enzymatic reaction, NMN quantified by mass spectrometry; conditions: read-out: Biochem IC50
T1 construct: His tag; host or cells: E. coli
T1 sequence (P43490 whole entry): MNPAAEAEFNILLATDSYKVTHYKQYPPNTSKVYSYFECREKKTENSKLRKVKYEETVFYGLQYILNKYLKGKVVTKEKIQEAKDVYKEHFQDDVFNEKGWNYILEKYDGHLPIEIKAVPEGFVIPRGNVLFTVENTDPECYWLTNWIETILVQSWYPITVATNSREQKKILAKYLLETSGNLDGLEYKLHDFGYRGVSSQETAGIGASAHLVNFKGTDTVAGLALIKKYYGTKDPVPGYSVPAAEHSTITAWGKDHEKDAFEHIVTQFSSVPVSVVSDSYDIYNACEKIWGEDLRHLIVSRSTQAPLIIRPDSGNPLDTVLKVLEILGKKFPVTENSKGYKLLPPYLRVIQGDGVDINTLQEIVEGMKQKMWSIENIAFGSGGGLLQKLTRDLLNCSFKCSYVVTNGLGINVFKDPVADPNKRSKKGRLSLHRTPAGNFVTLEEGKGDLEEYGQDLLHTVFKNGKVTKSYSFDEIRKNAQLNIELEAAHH
How it was run: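 Inhibition of E. coli-expressed His-tagged human NAMPT, measured as NMN formation by mass spectrometry after a 30 min room-temperature reaction containing 1 μM NAM, 100 μM PRPP and 2.5 mM ATP.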

SMILES: COc1cccc(S(=O)(=O)c2ccc(CNC(=O)c3ccc4nccn4c3)cc2)n1 [N-{[4-(6-methoxypyridine-2-sulfonyl)phenyl]methyl}imidazo[1,2-a]pyridine-6-carboxamide]
- IC50 (A2780 cells; SRB): 1.3 nM
- IC50 (NAMPT; NAMPT enzymatic assay): 5.2 nM

SMILES: N#Cc1ccccc1S(=O)(=O)c1ccc(CNC(=O)c2cc3ccncc3o2)cc1 [N-({4-[(2-cyanobenzene)sulfonyl]phenyl}methyl)furo[2,3-c]pyridine-2-carboxamide]
- IC50 (A2780 cells; SRB): 63.5 nM
- IC50 (NAMPT; NAMPT enzymatic reaction): 24.6 nM

SMILES: O=C(NCc1ccc(S(=O)(=O)c2cncc3ccccc23)cc1)c1cc2ccncc2s1 [N-{[4-(isoquinoline-4-sulfonyl)phenyl]methyl}thieno[2,3-c]pyridine-2-carboxamide]
- IC50 (A2780 cells; SRB assay): 0.7 nM
- IC50 (A2780 cells; SRB): 0.8 nM
- IC50 (NAMPT; NAMPT enzymatic assay): 6.7 nM
- IC50 (NAMPT; NAMPT enzymatic reaction): 3 nM

SMILES: Cc1ccc(C)c(S(=O)(=O)c2ccc(CNC(=O)c3ccc4nccn4c3)cc2)c1 [N-({4-[(2,5-dimethylbenzene)sulfonyl]phenyl}methyl)imidazo[1,2-a]pyridine-6-carboxamide]
- IC50 (A2780 cells; SRB): 15.4 nM
- IC50 (NAMPT; NAMPT enzymatic reaction): 29.3 nM

SMILES: O=C(NCc1ccc(S(=O)(=O)N2CCCCC2)cc1)c1cc2cnccc2o1 [N-{[4-(piperidine-1-sulfonyl)phenyl]methyl}furo[3,2-c]pyridine-2-carboxamide]
- IC50 (A2780 cells; SRB assay): 286 nM
- IC50 (NAMPT; NAMPT enzymatic reaction): 17 nM

SMILES: O=C(NCc1ccc(S(=O)(=O)c2ccccc2CN2CCOCC2)cc1)c1cnc2[nH]ncc2c1
- IC50 (A2780 cells; SRB): 46.5 nM
- IC50 (NAMPT; NAMPT enzymatic assay): 69.4 nM

SMILES: Cc1cc(S(=O)(=O)c2ccc(CNC(=O)c3cc4ccncc4o3)cc2)c(C)cc1F
- IC50 (A2780 cells; SRB): 24.2 nM
- IC50 (NAMPT; NAMPT enzymatic reaction): 17.6 nM

SMILES: COc1cc(C)c(S(=O)(=O)c2ccc(CNC(=O)c3cnc4[nH]ncc4c3)cc2)cc1C [N-({4-[(4-methoxy-2,5-dimethylbenzene)sulfonyl]phenyl}methyl)-1H-pyrazolo[3,4-b]pyridine-5-carboxamide]
- IC50 (A2780 cells; SRB): 23.6 nM
- IC50 (NAMPT; NAMPT enzymatic reaction): 36.8 nM

SMILES: Cc1cc(S(=O)(=O)c2ccc(CNC(=O)c3cnc4nccn4c3)cc2)ccc1F
- IC50 (A2780 cells; SRB): 9.6 nM
- IC50 (NAMPT; NAMPT enzymatic reaction): 2.2 nM

SMILES: Cc1cc(C)c(S(=O)(=O)c2ccc(CNC(=O)c3cnc4[nH]ncc4c3)cc2)cc1C [N-({4-[(2,4,5-trimethylbenzene)sulfonyl]phenyl}methyl)-1H-pyrazolo[3,4-b]pyridine-5-carboxamide]
- IC50 (A2780 cells; SRB): 19.3 nM
- IC50 (NAMPT; NAMPT enzymatic reaction): 31.3 nM

SMILES: O=C(NCc1ccc(S(=O)(=O)c2cccc3ccccc23)cc1)c1cc2ccncc2o1 [N-{[4-(naphthalene-1-sulfonyl)phenyl]methyl}furo[2,3-c]pyridine-2-carboxamide]
- IC50 (A2780 cells; SRB): 3.1 nM
- IC50 (NAMPT; NAMPT enzymatic assay): 4.9 nM

SMILES: O=C(NCc1ccc(S(=O)(=O)c2ccccc2)cc1)c1noc(-c2cccnc2)n1 [N-{[4-(benzenesulfonyl)phenyl]methyl}-5-(pyridin-3-yl)-1,2,4-oxadiazole-3-carboxamide]
- IC50 (A2780 cells; SRB assay): > 30000 nM
- IC50 (NAMPT; NAMPT enzymatic reaction): 312 nM

SMILES: Cc1ccc(S(=O)(=O)c2ccc(CNC(=O)c3cnc4nccn4c3)cc2)cc1F
- IC50 (A2780 cells; SRB): 6.3 nM
- IC50 (NAMPT; NAMPT enzymatic reaction): 2.3 nM

SMILES: Cc1ccc(S(=O)(=O)c2ccc(CNC(=O)c3cnc4[nH]ncc4c3)cc2)s1 [N-{[4-(5-methylthiophene-2-sulfonyl)phenyl]methyl}-1H-pyrazolo[3,4-b]pyridine-5-carboxamide]
- IC50 (A2780 cells; SRB): 34.7 nM
- IC50 (NAMPT; NAMPT enzymatic assay): 22.3 nM

SMILES: COc1cccc(Cl)c1S(=O)(=O)c1ccc(CNC(=O)c2cc3ccncc3o2)cc1
- IC50 (A2780 cells; SRB): 21.4 nM
- IC50 (NAMPT; NAMPT enzymatic reaction): 16.7 nM

SMILES: O=C(NCc1ccc(S(=O)(=O)c2c(Cl)cccc2Cl)cc1)c1cc2ccncc2s1
- IC50 (A2780 cells; SRB): 18.2 nM
- IC50 (NAMPT; NAMPT enzymatic reaction): 7.6 nM

SMILES: COc1cc(Cl)cc(S(=O)(=O)c2ccc(CNC(=O)c3cnc4nccn4c3)cc2)c1
- IC50 (A2780 cells; SRB): 0.8 nM
- IC50 (NAMPT; NAMPT enzymatic reaction): 1.3 nM

SMILES: CC(=O)c1ccccc1S(=O)(=O)c1ccc(CNC(=O)c2cnc3nccn3c2)cc1
- IC50 (A2780 cells; SRB): 8.2 nM
- IC50 (NAMPT; NAMPT enzymatic reaction): 2.5 nM

SMILES: COc1cc(-n2cccn2)ccc1S(=O)(=O)c1ccc(CNC(=O)c2cc3ccncc3s2)cc1 [N-[(4-{[2-methoxy-4-(1H-pyrazol-1-yl)benzene]sulfonyl}phenyl)methyl]thieno[2,3-c]pyridine-2-carboxamide]
- IC50 (A2780 cells; SRB assay): 2.6 nM
- IC50 (NAMPT; NAMPT enzymatic reaction): 5 nM

SMILES: Cc1nc(S(=O)(=O)c2ccc(CNC(=O)c3cc4ccncc4o3)cc2)cs1 [N-{[4-(2-methyl-1,3-thiazole-4-sulfonyl)phenyl]methyl}furo[2,3-c]pyridine-2-carboxamide]
- IC50 (A2780 cells; SRB): 69 nM
- IC50 (NAMPT; NAMPT enzymatic assay): 36.7 nM

SMILES: O=C(NCc1ccc(S(=O)(=O)c2cccc3c2OCC3)cc1)c1cnc2nccn2c1 [N-{[4-(2,3-dihydro-1-benzofuran-7-sulfonyl)phenyl]methyl}imidazo[1,2-a]pyrimidine-6-carboxamide]
- IC50 (A2780 cells; SRB): 25.8 nM
- IC50 (NAMPT; NAMPT enzymatic assay): 2.1 nM

SMILES: Cc1ccc(S(=O)(=O)c2ccc(CNC(=O)c3cnc4[nH]ncc4c3)cc2)c(Cl)c1 [N-({4-[(2-chloro-4-methylbenzene)sulfonyl]phenyl}methyl)-1H-pyrazolo[3,4-b]pyridine-5-carboxamide]
- IC50 (A2780 cells; SRB): 2.78 nM
- IC50 (NAMPT; NAMPT enzymatic reaction): 5 nM

SMILES: O=C(NCc1ccc(S(=O)(=O)c2cnc3n2CCCCC3)cc1)c1cc2ccncc2o1 [N-[(4-{5H,6H,7H,8H,9H-imidazo[1,2-a]azepine-3-sulfonyl}phenyl)methyl]furo[2,3-c]pyridine-2-carboxamide]
- IC50 (A2780 cells; SRB): 5.7 nM
- IC50 (NAMPT; NAMPT enzymatic assay): 6 nM

SMILES: Cn1ncc2cc(S(=O)(=O)c3ccc(CNC(=O)c4cnc5[nH]ncc5c4)cc3)ccc21 [N-{[4-(1-methyl-1H-indazole-5-sulfonyl)phenyl]methyl}-1H-pyrazolo[3,4-b]pyridine-5-carboxamide]
- IC50 (A2780 cells; SRB): 2.73 nM
- IC50 (NAMPT; NAMPT enzymatic assay): 5.4 nM

SMILES: NS(=O)(=O)c1cccc(S(=O)(=O)c2ccc(CNC(=O)c3cnc4[nH]ncc4c3)cc2)c1 [N-({4-[(3-sulfamoylbenzene)sulfonyl]phenyl}methyl)-1H-pyrazolo[3,4-b]pyridine-5-carboxamide]
- IC50 (A2780 cells; SRB): 100 to 1000 nM
- IC50 (NAMPT; NAMPT enzymatic reaction): 30.1 nM

SMILES: CCOc1cccc(S(=O)(=O)c2ccc(CNC(=O)c3cnc4[nH]ncc4c3)cc2)c1
- IC50 (A2780 cells; SRB): 19 nM
- IC50 (NAMPT; NAMPT enzymatic reaction): 14.6 nM

SMILES: COc1cc(C)c(S(=O)(=O)c2ccc(CNC(=O)c3cnc4nccn4c3)cc2)cc1C
- IC50 (A2780 cells; SRB): 13 nM
- IC50 (NAMPT; NAMPT enzymatic reaction): 5.2 nM

SMILES: O=C(NCc1ccc(S(=O)(=O)c2c(Cl)cccc2Cl)cc1)c1cnc2[nH]ncc2c1
- IC50 (A2780 cells; SRB): 1000 to 10000 nM
- IC50 (NAMPT; NAMPT enzymatic reaction): 180 nM

SMILES: COc1ccc(S(=O)(=O)c2ccc(CNC(=O)c3cc4ccncc4s3)cc2)c(C(F)(F)F)c1
- IC50 (A2780 cells; SRB): 13 nM
- IC50 (NAMPT; NAMPT enzymatic assay): 21.7 nM

SMILES: COc1c(Cl)ccc(S(=O)(=O)c2ccc(CNC(=O)c3cc4ccncc4s3)cc2)c1Cl
- IC50 (A2780 cells; SRB): 6.7 nM
- IC50 (NAMPT; NAMPT enzymatic reaction): 5.1 nM

SMILES: Cc1nc(S(=O)(=O)c2ccc(CNC(=O)c3cc4ccncc4o3)cc2)ccc1F [N-{[4-(5-fluoro-6-methylpyridine-2-sulfonyl)phenyl]methyl}furo[2,3-c]pyridine-2-carboxamide]
- IC50 (A2780 cells; SRB): 12.4 nM
- IC50 (NAMPT; NAMPT enzymatic assay): 6.2 nM

SMILES: O=C(NCc1ccc(S(=O)(=O)c2ccc(Cl)c(F)c2)cc1)c1ccc2nccn2c1 [N-({4-[(4-chloro-3-fluorobenzene)sulfonyl]phenyl}methyl)imidazo[1,2-a]pyridine-6-carboxamide]
- IC50 (A2780 cells; SRB): 7.24 nM
- IC50 (NAMPT; NAMPT enzymatic reaction): 7.22 nM

SMILES: COc1ccc(F)cc1S(=O)(=O)c1ccc(CNC(=O)c2ccc3nccn3c2)cc1 [N-({4-[(5-fluoro-2-methoxybenzene)sulfonyl]phenyl}methyl)imidazo[1,2-a]pyridine-6-carboxamide]
- IC50 (A2780 cells; SRB): 6.65 nM
- IC50 (NAMPT; NAMPT enzymatic reaction): 22 nM

SMILES: Cc1ccc(S(=O)(=O)c2ccc(CNC(=O)c3cc4ccncc4s3)cc2)c(C)c1 [N-({4-[(2,4-dimethylbenzene)sulfonyl]phenyl}methyl)thieno[2,3-c]pyridine-2-carboxamide]
- IC50 (A2780 cells; SRB): 22.2 nM
- IC50 (NAMPT; NAMPT enzymatic assay): 12 nM

SMILES: CC(C)Oc1cccc(S(=O)(=O)c2ccc(CNC(=O)c3ccc4nccn4c3)cc2)c1F
- IC50 (A2780 cells; SRB): 4 nM
- IC50 (NAMPT; NAMPT enzymatic assay): 7.8 nM

SMILES: O=C(NCc1ccc(S(=O)(=O)c2csc(-c3cccc(F)c3)n2)cc1)c1cnc2nccn2c1 [N-({4-[2-(3-fluorophenyl)-1,3-thiazole-4-sulfonyl]phenyl}methyl)imidazo[1,2-a]pyrimidine-6-carboxamide]
- IC50 (A2780 cells; SRB): 6.9 nM
- IC50 (NAMPT; NAMPT enzymatic assay): 1 nM

SMILES: CN(C)CCc1cccc(S(=O)(=O)c2ccc(CNC(=O)c3cc4ccncc4s3)cc2)c1
- IC50 (A2780 cells; SRB): 1.6 nM
- IC50 (NAMPT; NAMPT enzymatic assay): 2.5 nM

SMILES: O=C(NCc1ccc(S(=O)(=O)c2cccc(F)c2)cc1)c1cc2ccncc2s1 [N-({4-[(3-fluorobenzene)sulfonyl]phenyl}methyl)thieno[2,3-c]pyridine-2-carboxamide]
- IC50 (A2780 cells; SRB assay): 3.3 nM
- IC50 (NAMPT; NAMPT enzymatic reaction): 3 nM

SMILES: O=C(NCc1ccc(S(=O)(=O)c2cccc3ccsc23)cc1)c1cc2ccncc2s1 [N-{[4-(1-benzothiophene-7-sulfonyl)phenyl]methyl}thieno[2,3-c]pyridine-2-carboxamide]
- IC50 (A2780 cells; SRB): 1.5 nM
- IC50 (NAMPT; NAMPT enzymatic assay): 1.5 nM

SMILES: CCOc1cccc(S(=O)(=O)c2ccc(CNC(=O)c3cc4ccncc4s3)cc2)c1F
- IC50 (A2780 cells; SRB): 12.9 nM
- IC50 (NAMPT; NAMPT enzymatic reaction): 3.7 nM

SMILES: O=C(NCc1ccc(S(=O)(=O)c2c(Cl)cccc2Cl)cc1)c1cc2cnccc2[nH]1
- IC50 (A2780 cells; SRB): 13.5 nM
- IC50 (NAMPT; NAMPT enzymatic reaction): 44.7 nM

SMILES: O=C(NCc1ccc(S(=O)(=O)c2ccccc2)cc1)c1ccc2cnccc2c1 [N-{[4-(benzenesulfonyl)phenyl]methyl}isoquinoline-6-carboxamide]
- IC50 (A2780 cells; SRB assay): 21300 nM
- IC50 (NAMPT; NAMPT enzymatic reaction): 16100 nM

SMILES: CCN(CC)C(=O)c1cc(F)cc(S(=O)(=O)c2ccc(CNC(=O)c3cc4ccncc4o3)cc2)c1
- IC50 (A2780 cells; SRB): 3.8 nM
- IC50 (NAMPT; NAMPT enzymatic assay): 10.3 nM

SMILES: CCCOc1ccc(S(=O)(=O)c2ccc(CNC(=O)c3cnc4nccn4c3)cc2)cc1
- IC50 (A2780 cells; SRB): 6.1 nM
- IC50 (NAMPT; NAMPT enzymatic reaction): 2.2 nM

SMILES: Cc1ccc(Cl)c(S(=O)(=O)c2ccc(CNC(=O)c3cc4ccncc4s3)cc2)c1F
- IC50 (A2780 cells; SRB): 6.8 nM
- IC50 (NAMPT; NAMPT enzymatic assay): 7.7 nM

SMILES: O=C(NCc1ccc(S(=O)(=O)c2cccc3c2Oc2ccccc2S3)cc1)c1cnc2[nH]ncc2c1 [N-{[4-(phenoxathiine-4-sulfonyl)phenyl]methyl}-1H-pyrazolo[3,4-b]pyridine-5-carboxamide]
- IC50 (A2780 cells; SRB): 20.4 nM
- IC50 (NAMPT; NAMPT enzymatic assay): 14.8 nM
